Results on five compounds are retold here after US20080188473A1, “Indoles Useful in the Treatment of Inflammation” (priority 2004, published 2008).

SMILES strings stand for the structures.

The target of this test is T1, human mPGES-1 (Homo sapiens, UniProt O14684).
T1 construct: made in house; host or cells: E. coli (membrane fraction)
T1 sequence (O14684 1-152): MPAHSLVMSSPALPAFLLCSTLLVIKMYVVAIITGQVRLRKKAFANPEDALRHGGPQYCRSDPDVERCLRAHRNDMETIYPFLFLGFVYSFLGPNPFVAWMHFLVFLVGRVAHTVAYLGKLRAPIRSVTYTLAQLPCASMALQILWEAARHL
The test is described as follows: mPGES-1 inhibition assay (conversion of PGH2 to PGE2, HPLC analysis). The test is classed as biochemical. Particulars: human mPGES-1 expressed in E. coli, membrane fraction; 25 min preincubation with inhibitor, PGH2 substrate 60 seconds, room temperature; read-out: concentration at which 50% inhibition of mPGES-1 was observed. As for the experimental part: In the assay human mPGES-1 catalyses the reaction where the substrate PGH2 is converted to PGE2. mPGES-1 is expressed in E. coli and the membrane fraction is dissolved in 20 mM NaPi-buffer pH 8.0 and stored at −80° C. […] The stop solution consists of H2O/MeCN (7/3), containing FeCl2 (25 mM) and HCl (0.15 M). The assay is performed at room temperature in 96-well plates.
The following is added chronologically to each well: • 1. 100 μL human in PGES-1 in KPi-buffer with glutathione. Total protein concentration: 0.02 mg/mL. • 2. 1 μL inhibitor in DMSO. Incubation of the plate at room temperature for 25 minutes. • 3. 4 μL of a 0.25 mM PGH2 solution. Incubation of the plate at room temperature for 60 seconds. • 4. 100 μL stop solution. • 180 μL per sample is analyzed with HPLC.
In the case of `CC(=O)N(C)c1c(C(=O)O)n(-c2ccc(OC(C)C)cc2)c2ccc(-c3ccc(C(F)(F)F)cn3)cc12` [Example 12, 3-(Acetylmethylamino)-1-(4-isopropoxyphenyl)-5-(5-trifluoromethyl-pyridin-2-yl)-1H-indole-2-carboxylic acid], the IC50 worked out at 5300 nM.
Take `CC(C)Oc1ccc(-n2c(C(=O)O)c(N3CCOCC3)c3cc(-c4ccc(C(F)(F)F)cc4)ccc32)cc1` [Example 7, 1-(4-Isopropoxyphenyl)-3-(4-morpholino)-5-(4-(trifluoromethyl)phenyl)-indole-2-carboxylic acid]: the IC50 is 730 nM.
As for `CC(C)Oc1ccc(-n2c(C(=O)O)c(NC(=O)c3cccnc3)c3cc(-c4ccc(C(F)(F)F)cn4)ccc32)cc1` [Example 13, 1-(4-Isopropoxyphenyl)-3-nicotinamide-5-(5-trifluoromethylpyridin-2-yl)-1H-indole-2-carboxylic acid], the figure is 190 nM; as for `CC(C)Oc1ccc(-c2ccc3c(c2)c(NS(C)(=O)=O)c(C(=O)O)n3-c2ccc(OC(C)C)cc2)cc1` [Example 3, 1,5-Bis(4-isopropoxyphenyl)-3-(methylsulfonamido)indole-2-carboxylic acid], 1700 nM.
Next, `CC(=O)Nc1c(C(=O)O)n(-c2ccc(OC(C)C)cc2)c2ccc(-c3ccc(OC(C)C)cc3)cc12` [Example 1, 3-Acetamido-1,5-bis(4-isopropoxyphenyl)-indole-2-carboxylic acid]: 3100 nM.
